From patent US4071528A, “Certain thiazolidine and tetrahydrothiazine compounds” (May & Baker Limited, priority 1975, dated 1978)
Read-outs that look alike come from different tables or passages of the source.

What was measured:
[1] = system: Nippostrongylus brasiliensis; assay: Activity against roundworms in rats, A.1: treatment 6 days after infection (patent infection), post-mortem worm counts; format: in vivo; conditions: 48 h, oral, 100 mg/kg, treated 6 days after infection, read-out: % Reduction of mean worm load
Method: In the Tables of results "s.c." means subcutaneous and the doses are expressed in mg/kg animal body weight. […] A.1. Rats were infected with 100 Nippostrongylus brasiliensis larvae each, by the subcutaneous route. After 6 days, when the infection was patent, the rats were randomised and allotted to groups of 5 animals each, ready for treatment. One group was used for each dose level of the test compound, which was administered by the oral or subcutaneous route, and in each experiment, one group of 10 animals was left untreated as a control. All the rats were killed for post-mortem worm counts 48 hours after treatment. The activities, expressed in terms of the percentage reduction in mean worm load of the treated groups compared with the untreated group, are shown in Table I.

[2] = system: Nippostrongylus brasiliensis; assay: Activity against roundworms in rats, A.2: treatment 24 hours after infection, post-mortem worm counts; format: in vivo; conditions: 144 h, treated 24 hours after infection, read-out: % Reduction of mean worm load
Method: In the Tables of results "s.c." means subcutaneous and the doses are expressed in mg/kg animal body weight. […] A.2. Rats were infected with 100 Nippostrongylus brasiliensis larvae each, by the subcutaneous route. After 24 hours the rats were randomised and allotted to groups of 5 animals each, ready for treatment. Doses of the test compound were then administered to each group by the oral or subcutaneous route, one group of 10 animals being left untreated as a control. All the rats were killed for post-mortem worm counts 6 days after dosing. The activities, expressed in terms of the percentage reduction in mean worm load of the treated groups compared with the untreated control group, are given below in Table II.

Haemonchus contortus [3] = assay: B.1 Activity against adult Haemonchus contortus in lambs; format: in vivo; conditions: s.c. 10 mg/kg (methanesulphonate salt), adult stage
Method: (§1) B.1. Activity against Haemonchus contortus and Nematodirus spathiger in their adult stages in lambs.
(§2) Worm-free, 8-10 week old lambs were each infected with 5000 H. contortus and 15000 N. spathiger larvae. Approximately 3 weeks later, doses of test compound A were administered to each group of 2 animals, by the subcutaneous route, one group of 2 animals being left untreated as a control.
(§3) Individual faecal H. contortus egg counts were determined 1 day before and 5- 7 days after treatment, when all the lambs were killed for post-mortem worm counts. The activities, expressed in terms of the percentage reduction in mean worm burden of each worm species compared with the untreated control group, are given below.

Nematodirus spathiger [4] = assay: B.1 Activity against adult Nematodirus spathiger in lambs; format: in vivo; conditions: s.c. 10 mg/kg (methanesulphonate salt), adult stage
Method: as §1, §2, §3

Haemonchus contortus [5] = assay: B.2 Activity against Haemonchus contortus in 4th larval and adult stages in lambs; format: in vivo; conditions: oral 4 mg/kg
Method: (§4) B.2. Activity against Haemonchus contortus, Ostertagia circumcincta, Trichostrongylus axei, Trichostrongylus colubriformis and Nematodirus spathiger in their 4th larval and adult stages in lambs.
(§5) Worm-free, 8-10 week old lambs were each infected with 5,000 H. contortus, 15,000 O. circumcincta, 20,000 T. axei, 15,000 T. colubriformis and 15,000 N. spathiger larvae.
(§6) Doses of test compound A of 4 mg/kg animal body weight were then administered to each group of 2 animals, by the oral route, after 7 days or 25 days to examine the effects against the 4th larval stage and mature adult worms respectively, one group of 2 animals being left untreated as a control. All the lambs were killed for post-mortem worm wounts 28 days after infection. The activities, expressed in terms of the percentage reduction in mean worm burden of each worm species compared with the untreated control group, are given below in Table III.

Ostertagia circumcincta = assay: B.2 Activity against Ostertagia circumcincta in 4th larval and adult stages in lambs; format: in vivo; conditions: oral 4 mg/kg
Method: as §4, §5, §6

Trichostrongylus axei = assay: B.2 Activity against Trichostrongylus axei in 4th larval and adult stages in lambs; format: in vivo; conditions: oral 4 mg/kg
Method: as §4, §5, §6

[6] = system: Trichostrongylus colubriformis; assay: B.2 Activity against Trichostrongylus colubriformis in 4th larval and adult stages in lambs; format: in vivo; conditions: oral 4 mg/kg
Method: as §4, §5, §6

Nematodirus spathiger [7] = assay: B.2 Activity against Nematodirus spathiger in 4th larval and adult stages in lambs; format: in vivo; conditions: oral 4 mg/kg
Method: as §4, §5, §6

Cooperia oncophora = assay: C.2 Activity against Cooperia oncophora in mature and immature stages in calves; format: in vivo; conditions: s.c. 25 mg/kg (methanesulphonate salt)
Method: (§7) C.2. Activity against Cooperia oncophora, Ostertagia ostertagi, and Dictyocaulus viviparus in their mature and immature stages in calves. Worm free, 6-7 week old calves were each infected with 15,000 C. oncophora, 15,000 O. ostertagi and 3,000 D. viviparus larvae. Groups of two animals each were treated subcutaneously with test compound A at a dose of 25 mg/kg animal body weight at 7 days or 25 days after infection, one group of two animals being left untreated as a control. All calves were killed approximately 28 days after infection and were examined for residual worm burdens. The percentage reduction in mean worm burden of each worm species compared with the untreated control group is given below in Table V.

Ostertagia ostertagi = assay: C.2 Activity against Ostertagia ostertagi in mature and immature stages in calves; format: in vivo; conditions: s.c. 25 mg/kg (methanesulphonate salt)
Method: as §7

Dictyocaulus viviparus = assay: C.2 Activity against Dictyocaulus viviparus in mature and immature stages in calves; format: in vivo; conditions: s.c. 25 mg/kg (methanesulphonate salt)
Method: as §7

Fasciola hepatica = assay: D. Activity against mature and immature liver flukes in sheep; format: in vivo; conditions: oral 25 mg/kg in gelatin capsules
Method: D. Activity against mature and immature liver flukes in sheep On the first day of the experiment a group of sheep were each infected with 300 metacercariae of liver fluke Fasciola hepatica and on the 56th day they were each infected with a further 300 metacercariae of F. hepatica. On day 70 of the experiment, doses of the test compounds of 25 mg/kg animal body weight were administered orally in gelatin capsules to groups of two animals per compound. One group of two animals was left untreated as controls. On day 98 of the experiment, all the sheep were killed. The number of mature flukes present in the bile ducts and the numbers of immature flukes present in the rest of the liver were counted. The activities, expressed in terms of the percentage reduction in mean fluke burdens compared with the untreated controls, are shown below in Table VI.

[8] = Oral acute toxicity (LD50) in mice; conditions: mouse, in vivo, observed during next 6 days
Description: Mice were each treated orally with one of the compounds of formula I, and they were observed during the next 6 days. The LD50 figures obtained (doses lethal to 50% of mice tested) are shown in Table VII, expressed in mg/kg animal body weight.

Mycosphaerella pinodes = assay: Minimum effective concentration totally inhibiting fungal growth, Mycosphaerella pinodes, potato dextrose agar tubes; format: cell-based; conditions: Didymella pinodes, 48 h; total inhibition of fungal growth; tested at 50, 10 or 2 ppm; 25° C, 2 days
Method: Test tubes containing 4.0 ml of molten potato dextrose agar at about 50° C were inoculated with 0.5 ml of suspension of test compound and 0.5 ml of fungal suspension delivered from a sterile syringe to give a final concentration of each compound of 50, 10 or 2 ppm. Two replicate tubes were inoculated with each fungal species. After the addition of test compounds and fungal inoculum to the molten medium the tubes were sloped and the agar was allowed to set. The tubes were incubated at 25° C for either 2 days (Mycosphaerella pinodes) or 3 days (Helminthosporium avenae). […] The suspensions of test compounds were prepared by grinding 0.025 g of test compound with sterile distilled water containing 0.1 ml of 0.1% Texofor FX170 wetting agent, followed by dilution to the concentration desired. The inoculum of Mycosphaerella pinodes was prepared as follows: A one to two week old culture on Coon's agar on plates was scraped off with a glass rod and sterile distilled water and filtered through muslin. The filtrate, containing the spores, was used for inoculation.

[9] = sc, s.c. (methanesulphonate salt, aqueous)
[10] = treated at 7 days (4th larval stage)
[11] = treated at 25 days (mature adult worms)
[12] = treated 25 days after infection

COC(=O)N=C1SCC(=O)N1c1ccc(Sc2ccccc2)cc1NC(=O)CN(C)C [Compound A, 3-[2-(2-dimethylaminoacetamido)-4-phenylthiophenyl]-2-methoxycarbonyliminothiazolidin-4-one]
inhibition in vivo at 100 mg/kg [1]: 99% | inhibition in vivo at 12.5 mg/kg ([2]; oral): 85% | inhibition in vivo at 50 mg/kg ([2]; oral): 99% | inhibition in vivo at 12.5 mg/kg [2, 9]: 91% | inhibition in vivo at 50 mg/kg [2, 9]: 99% | reduction of the mean worm burden of H. contortus (Haemonchus contortus [3]): 100% | reduction of the mean worm burden of N. spathiger (Nematodirus spathiger [4]): 99% | Percentage reduction in mean worm burdens, H. contortus (Haemonchus contortus [5]; [10]): 100% | Percentage reduction in mean worm burdens, H. contortus (Haemonchus contortus [5]; [11]): 100% | Percentage reduction in mean worm burdens, O. circumcincta (Ostertagia circumcincta; [10]): 99% | Percentage reduction in mean worm burdens, O. circumcincta (Ostertagia circumcincta; [11]): 100% | Percentage reduction in mean worm burdens, T. axei (Trichostrongylus axei; [10]): 100% | Percentage reduction in mean worm burdens, T. axei (Trichostrongylus axei; [11]): 100% | Percentage reduction in mean worm burdens, T. colubriformis [6, 10]: 100% | Percentage reduction in mean worm burdens, T. colubriformis [6, 11]: 100% | Percentage reduction in mean worm burdens, N. spathiger (Nematodirus spathiger [7]; [10]): 95% | Percentage reduction in mean worm burdens, N. spathiger (Nematodirus spathiger [7]; [11]): 97% | % Reduction of mean worm burdens, C. oncophora (Cooperia oncophora; treated 7 days after infection): 100% | % Reduction of mean worm burdens, C. oncophora (Cooperia oncophora; [12]): 100% | % Reduction of mean worm burdens, O. ostertagi (Ostertagia ostertagi; treated 7 days after infection): 97% | % Reduction of mean worm burdens, O. ostertagi (Ostertagia ostertagi; [12]): 100% | % Reduction of mean worm burdens, D. viviparus (Dictyocaulus viviparus; treated 7 days after infection): 83% | % Reduction of mean worm burdens, D. viviparus (Dictyocaulus viviparus; [12]): 82% | Mean % Reduction, Immature flukes (Fasciola hepatica; immature flukes in rest of liver): 29% | Mean % Reduction, Mature flukes (Fasciola hepatica; mature flukes in bile ducts): 93% | LD50 at 144 h [8]: ~1000 mg/kg | MIC (Mycosphaerella pinodes): < 2 µg/mL
